According to patent publication US12187702B2, “Sulfonamideurea compounds” (Inflazome Limited, priority 2018, dated 2025):
Structures can show the parent of a compound that is named as a salt.

Columns and labels:
NLRP3 [1] = target: T1, NLRP3 (Homo sapiens, UniProt Q96P20); experiment: THP-1 cells pyroptosis assay (LPS + nigericin, resazurin read-out); format: cell-based; design: Seed THP-1 cells (25,000 cells/well) containing 1.0 μg/ml LPS; host or cells: THP-1 cells; conditions: THP-1 cells, 1 μg/ml LPS, 5 μM nigericin; NLRP3 inhibitory activity; read-out: THP IC50
How it was run: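 THP-1 cells (25,000/well) primed with 1 μg/ml LPS in serum-free RPMI, treated 3 h with compound (8-point half-log series, 10 μM top, 0.1% DMSO), then 5 μM nigericin for 1 h at 37 °C. Viability read by 100 μM resazurin fluorescence after 1-2 h; IC50 from 4-parameter fit.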

NLRP3 [2] = target: T1, NLRP3; experiment: Human whole blood IL-1β release assay (LPS + nigericin, AlphaLisa); format: cell-based; design: Plate out 80 μl of whole blood containing 1 μg/ml of LPS; from tissue; host or cells: human whole blood from healthy donors; conditions: human whole blood, 1 μg/ml LPS, 10 μM nigericin; IL-1β release; read-out: HWB IC50
How it was run: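 Healthy-donor Li-heparin whole blood containing 1 μg/ml LPS incubated with compound (8-point half-log dilution, 10 μM top) for 3 h at 37 °C, then with 10 μM nigericin for 1 h. Supernatant IL-1β measured by AlphaLisa; IC50 from 4-parameter variable-slope fit.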

[3] = PK, intravenous administration; format: in vivo, male Sprague Dawley rats; conditions: male, Sprague Dawley, plasma, rat; for clearance / half-life: dose per compound as in Table 3; for AUC: dose per compound as in Table 3 (0.08-1.86 mg/kg); for Vd: dose per compound as in Table 3, read-out: Vdss
Method: (§1) Pharmacokinetic parameters were determined in male Sprague Dawley rats (Charles River, UK, 250-350 g; or Vital River Laboratory Animal Technology Co Ltd, Beijing, China, 7-9 weeks old). Animals were individually housed during the study and maintained under a 12 h light/dark cycle.
(§2) For intravenous administration, compounds were formulated as a solution in water or DMSO:PBS [10:90] in 2 mL/kg dosing volume and administered via tail or jugular vein. For oral administration, compounds were formulated as a solution in 0.5% w/v methyl cellulose in water in 5 mL/kg dosing volume and administered orally.
(§3) Serial blood samples (about 120-300 μL) were taken from each animal at each of 8 time-points post dose (0.083, 0.25, 0.5, 1, 2, 4, 8 and 24 h) or at each of 12 time-points post dose (0.03, 0.1, 0.17, 0.25, 0.5, 1, 2, 4, 6, 8, 12 and 24 h) or pre-dose and at each of 9 time-points post dose (0.25, 0.5, 1, 2, 4, 6, 8, 12 and 24 h). Samples were held on ice for no longer than 30 minutes before centrifugation (10,000 rpm (8,385 g) for 3 minutes; or 5,696 rpm (3,000 g) for 15 minutes) for plasma generation. Plasma was frozen on dry ice prior to bioanalysis. PK parameters were generated from LC-MS/MS data using Dotmatics or Phoenix WinNonlin 6.3 software.

PK, oral administration = format: in vivo, male Sprague Dawley rats; conditions: male, Sprague Dawley, plasma, rat, 3 mg/kg
Method: as §1, §2, §3

T1 sequence (Q96P20 whole entry): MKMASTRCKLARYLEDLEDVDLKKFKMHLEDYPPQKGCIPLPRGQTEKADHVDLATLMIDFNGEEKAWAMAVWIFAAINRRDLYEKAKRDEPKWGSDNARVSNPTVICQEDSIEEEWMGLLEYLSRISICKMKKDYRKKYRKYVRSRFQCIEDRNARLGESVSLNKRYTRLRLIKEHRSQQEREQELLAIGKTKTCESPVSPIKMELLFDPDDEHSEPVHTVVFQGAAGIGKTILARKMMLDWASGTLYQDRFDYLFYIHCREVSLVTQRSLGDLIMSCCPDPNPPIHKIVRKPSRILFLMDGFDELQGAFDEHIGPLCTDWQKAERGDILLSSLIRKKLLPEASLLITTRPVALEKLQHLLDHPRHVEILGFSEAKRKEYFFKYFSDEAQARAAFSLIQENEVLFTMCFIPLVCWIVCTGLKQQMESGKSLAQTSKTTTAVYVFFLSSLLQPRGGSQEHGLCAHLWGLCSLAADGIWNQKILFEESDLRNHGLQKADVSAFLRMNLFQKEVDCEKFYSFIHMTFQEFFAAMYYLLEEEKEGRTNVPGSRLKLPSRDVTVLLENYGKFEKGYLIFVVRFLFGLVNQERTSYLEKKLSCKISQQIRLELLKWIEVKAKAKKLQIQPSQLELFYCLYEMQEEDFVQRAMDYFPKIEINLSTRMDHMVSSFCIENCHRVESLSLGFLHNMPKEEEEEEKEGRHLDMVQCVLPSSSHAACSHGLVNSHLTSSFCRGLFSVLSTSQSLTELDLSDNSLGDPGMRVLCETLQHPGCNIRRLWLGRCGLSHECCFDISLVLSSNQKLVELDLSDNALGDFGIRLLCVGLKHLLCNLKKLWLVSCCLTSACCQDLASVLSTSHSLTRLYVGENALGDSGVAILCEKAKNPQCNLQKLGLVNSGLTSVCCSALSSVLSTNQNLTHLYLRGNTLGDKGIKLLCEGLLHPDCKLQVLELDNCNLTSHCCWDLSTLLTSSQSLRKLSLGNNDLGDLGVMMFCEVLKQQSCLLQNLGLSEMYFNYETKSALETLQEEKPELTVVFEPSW

| Compound | IC50 (NLRP3 [1]) [nM] | IC50 (NLRP3 [2]) [nM] | clearance [3] [mL/min/kg] | half-life [3] [h] | AUC [3] [ng·h/mL] | Vd [3] [L/kg] | AUC (PK, oral administration) [ng·h/mL] | CL/F (PK, oral administration) [mL/min/kg] | Cmax (PK, oral administration) [ng/mL] | Tmax (PK, oral administration) [h] | bioavailability (PK, oral administration) [%] | half-life (PK, oral administration) [h] |
| --- | --- | --- | --- | --- | --- | --- | --- | --- | --- | --- | --- | --- |
| CN1CC[C@@H](N(C)S(=O)(=O)NC(=O)Nc2c3c(cc4c2CCC4)CCC3)C1 [Example 66, 3-((R)—N-Methyl-N-(1-methylpyrrolidin-3-yl)sulfamoyl)-1-(1,2,3,5,6,7-hexahydro-s-indacen-4-yl)urea, potassium salt] | < 500 | < 500 | 3.7 | 3.44 | 6760 | 0.43 |  |  |  |  |  |  |
| CN1CCC2CN(S(=O)(=O)NC(=O)Nc3c4c(cc5c3CCC5)CCC4)CC21 (stereo not drawn) [Example 96, N-((1,2,3,5,6,7-Hexahydro-s-indacen-4-yl)carbamoyl)-1-methylhexahydropyrrolo[3,4-b]pyrrole-5(1H)-sulfonamide, potassium salt] | < 500 | < 500 | 5.7 | 1.14 | 5150 | 0.45 |  |  |  |  |  |  |
| COc1cc(-c2ccc3c(c2NC(=O)NS(=O)(=O)N(C)[C@@H]2CCN(C)C2)CCC3)ccn1 [Example 110, (R)-3-(N-Methyl-N-(1-methylpyrrolidin-3-yl)sulfamoyl)-1-(5-(2-methoxypyridin-4-yl)-2,3-dihydro-1H-inden-4-yl)urea, potassium salt] | < 500 | < 500 | 20 | 3.9 | 835 | 1.6 | 1020 | 50 | 277 | 0.67 | 41 | 3.4 |
| COc1cc(-c2ccc3c(c2NC(=O)NS(=O)(=O)N(C)[C@H]2CCN(C)C2)CCC3)ccn1 [Example 111, (S)-3-(N-methyl-N-(1-methylpyrrolidin-3-yl)sulfamoyl)-1-(5-(2-methoxypyridin-4-yl)-2,3-dihydro-1H-inden-4-yl)urea, potassium salt] | < 500 | < 500 | 17 | 4.8 | 979 | 1.3 | 1380 | 38 | 318 | 0.67 | 47 | 4 |
